# Calls of active or inactive are those of the source. The calls are words filed in the database; no cut-off is given here. Peptide text beside a SMILES is read from it. * marks the point of attachment. Cbz = O=C(OCc1ccccc1)*
# Experiments:
# [1] = Cytotoxicity against human fibroblasts assessed as growth inhibition after 48 hrs by MTT assay; assay type: cell-based; details: Fibroblast
# SW480 = assay: Cytotoxicity against human SW480 cells assessed as growth inhibition after 48 hrs by MTT assay; assay type: functional, cell-based; details: SW480, 48 h
# SK-OV-3 = assay: Cytotoxicity against human SKOV3 cells assessed as growth inhibition after 48 hrs by MTT assay; assay type: functional, cell-based; details: SK-OV-3, 48 h
# HeLa = assay: Cytotoxicity against human HeLa cells assessed as growth inhibition after 48 hrs by MTT assay; assay type: functional, cell-based
# JIYOYE = assay: Cytotoxicity against human Jijoye cells assessed as growth inhibition after 48 hrs by MTT assay; assay type: functional, cell-based
# K562 = assay: Cytotoxicity against human K562 cells assessed as growth inhibition after 48 hrs by MTT assay; assay type: functional, cell-based; details: K562, 48 h
# Jurkat [2] = assay: Cytotoxicity against human Jurkat cells assessed as growth inhibition after 48 hrs by MTT assay; assay type: functional, cell-based
# Jurkat [3] = assay: Inhibition of trypsin-like activity of proteasome isolated from human Jurkat cells using Boc-LRR-AMC as substrate assessed as residual activity at 10 uM incubated for 30 mins followed by substrate addition measured for 2 hrs by fluorescence assay relative to control; assay type: cell-free
# Jurkat [4] = assay: Inhibition of chymotrypsin-like activity of proteasome isolated from human Jurkat cells using Suc-LLVY-AMC as substrate assessed as residual activity at 10 uM incubated for 30 mins followed by substrate addition measured for 2 hrs by fluorescence assay relative to control; assay type: cell-free
# Jurkat [5] = assay: Inhibition of trypsin-like activity of proteasome isolated from human Jurkat cells using Boc-LRR-AMC as substrate assessed as residual activity at 100 uM incubated for 30 mins followed by substrate addition measured for 2 hrs by fluorescence assay relative to control; assay type: cell-free
# Jurkat [6] = assay: Inhibition of trypsin-like activity of proteasome isolated from human Jurkat cells using Boc-LRR-AMC as substrate assessed as residual activity at 50 uM incubated for 30 mins followed by substrate addition measured for 2 hrs by fluorescence assay relative to control; assay type: cell-free
# Jurkat [7] = assay: Inhibition of trypsin-like activity of proteasome isolated from human Jurkat cells using Boc-LRR-AMC as substrate assessed as residual activity at 25 uM incubated for 30 mins followed by substrate addition measured for 2 hrs by fluorescence assay relative to control; assay type: cell-free
# Jurkat [8] = assay: Inhibition of chymotrypsin-like activity of proteasome isolated from human Jurkat cells using Suc-LLVY-AMC as substrate assessed as residual activity at 100 uM incubated for 30 mins followed by substrate addition measured for 2 hrs by fluorescence assay relative to control; assay type: cell-free
# Jurkat [9] = assay: Inhibition of chymotrypsin-like activity of proteasome isolated from human Jurkat cells using Suc-LLVY-AMC as substrate assessed as residual activity at 50 uM incubated for 30 mins followed by substrate addition measured for 2 hrs by fluorescence assay relative to control; assay type: cell-free
# Jurkat [10] = assay: Inhibition of chymotrypsin-like activity of proteasome isolated from human Jurkat cells using Suc-LLVY-AMC as substrate assessed as residual activity at 25 uM incubated for 30 mins followed by substrate addition measured for 2 hrs by fluorescence assay relative to control; assay type: cell-free
# Jurkat [11] = assay: Cell cycle arrest in human Jurkat cells assessed at 20 uM by propidium iodide staining-based FACS flow cytometric analysis; assay type: functional
# Jurkat [12] = assay: Induction of apoptosis in human Jurkat cells assessed as caspase 3/7 activation at 20 uM after overnight incubation by luminescence assay; assay type: functional, cell-based
# Jurkat [13] = assay: Inhibition of proteasome in human Jurkat cells assessed as accumulation of ubiquitinated protein at 50 uM by Western blot analysis; assay type: cell-based
# Jurkat [14] = assay: Inhibition of trypsin-like activity of proteasome in human Jurkat cells at 50 uM after 30 mins by fluorescence assay; assay type: cell-based
# Jurkat [15] = assay: Inhibition of chymotrypsin-like activity of proteasome in human Jurkat cells assessed as residual activity at 50 uM after 30 mins by fluorescence assay relative to control; assay type: cell-based
# Jurkat [16] = assay: Induction of apoptosis in human Jurkat cells assessed as dead cells at 20 uM by propidium iodide/annexin V staining-based FACS flow cytometric analysis (reference value: 0.66%); assay type: functional
# Jurkat [17] = assay: Induction of apoptosis in human Jurkat cells assessed as late apoptotic cells at 20 uM by propidium iodide/annexin V staining-based FACS flow cytometric analysis (reference value: 0.37%); assay type: functional
# Jurkat [18] = assay: Induction of apoptosis in human Jurkat cells assessed as early apoptotic cells at 20 uM by propidium iodide/annexin V staining-based FACS flow cytometric analysis (reference value: 1.87%); assay type: functional
# Jurkat [19] = assay: Cell cycle arrest in human Jurkat cells assessed as accumulation at sub G0/G1 phase at 20 uM by propidium iodide staining-based FACS flow cytometric analysis (reference value: 4.81%); assay type: functional
# Jurkat [20] = assay: Cell cycle arrest in human Jurkat cells assessed as accumulation at G2/M phase at 20 uM by propidium iodide staining-based FACS flow cytometric analysis (reference value: 16.63%); assay type: functional
# Jurkat [21] = assay: Cell cycle arrest in human Jurkat cells assessed as accumulation at S phase at 20 uM by propidium iodide staining-based FACS flow cytometric analysis (reference value: 26.91%); assay type: functional
# Jurkat [22] = assay: Cell cycle arrest in human Jurkat cells assessed as accumulation at G0/G1 phase at 20 uM by propidium iodide staining-based FACS flow cytometric analysis (reference value: 52.59%); assay type: functional
SMILES,IC50 [1],IC50 (SW480),IC50 (SK-OV-3),IC50 (HeLa),IC50 (JIYOYE),IC50 (K562),IC50 (Jurkat [2]),also measured
CC1(C)CC[C@]2(C(=O)O)CC[C@]3(C)C(=CC[C@@H]4[C@@]5(C)CC=C(B6OC(C)(C)C(C)(C)O6)C(C)(C)[C@@H]5CC[C@]43C)[C@@H]2C1,> 50 µM,> 50 µM,> 50 µM,> 50 µM,> 50 µM,> 50 µM,> 50 µM,–
CC(C)C[C@@H](C=O)NC(=O)[C@H](CC(C)C)NC(=O)[C@H](CC(C)C)NC(=O)OCc1ccccc1 (Cbz-Leu-Leu-Leu-aldehyde),–,–,–,–,–,–,–,Activity (Jurkat [3]): < 20%; Activity (Jurkat [4]): < 20%
COC(=O)[C@]12CCC(C)(C)C[C@H]1[C@H]1/C(=N\O)C[C@@H]3[C@@]4(C)CC=C(B5OC(C)(C)C(C)(C)O5)C(C)(C)[C@@H]4CC[C@@]3(C)[C@]1(C)CC2,> 50 µM,> 50 µM,> 50 µM,> 50 µM,> 50 µM,> 50 µM,> 50 µM,–
COC(=O)[C@]12CCC(C)(C)C[C@H]1C1=CC[C@@H]3[C@@]4(C)CC=C(B5OC(C)(C)C(C)(C)O5)C(C)(C)[C@@H]4CC[C@@]3(C)[C@]1(C)CC2,> 50 µM,> 50 µM,> 50 µM,> 50 µM,> 50 µM,> 50 µM,> 50 µM,–
CC1(C)CC[C@]2(C(N)=O)CC[C@]3(C)C(=CC[C@@H]4[C@@]5(C)CC=C(B6OC(C)(C)C(C)(C)O6)C(C)(C)[C@@H]5CC[C@]43C)[C@@H]2C1,> 50 µM,> 50 µM,> 50 µM,34.7 µM,8.4 µM,8.3 µM,21.6 µM,Activity (Jurkat [5]): 72.5%; Activity (Jurkat [6]): 77.9%; Activity (Jurkat [7]): 81.6%; Activity (Jurkat [8]): 85.6%; Activity (Jurkat [9]): 92.4%; Activity (Jurkat [10]): 95.8%; Activity (Jurkat [11]): inactive; Activity (Jurkat [12]): Active
COC(=O)[C@H](C)NC(=O)[C@]12CCC(C)(C)C[C@H]1C1=CC[C@@H]3[C@@]4(C)CC=C(B5OC(C)(C)C(C)(C)O5)C(C)(C)[C@@H]4CC[C@@]3(C)[C@]1(C)CC2,> 50 µM,> 50 µM,> 50 µM,> 50 µM,> 50 µM,> 50 µM,> 50 µM,–
COC(=O)CNC(=O)[C@]12CCC(C)(C)C[C@H]1C1=CC[C@@H]3[C@@]4(C)CC=C(B5OC(C)(C)C(C)(C)O5)C(C)(C)[C@@H]4CC[C@@]3(C)[C@]1(C)CC2,> 50 µM,> 50 µM,> 50 µM,> 50 µM,> 50 µM,> 50 µM,> 50 µM,–
CC1(C)CC[C@]2(C#N)CC[C@]3(C)C(=CC[C@@H]4[C@@]5(C)CC=C(B6OC(C)(C)C(C)(C)O6)C(C)(C)[C@@H]5CC[C@]43C)[C@@H]2C1,> 50 µM,> 50 µM,> 50 µM,> 50 µM,> 50 µM,> 50 µM,> 50 µM,–
COC(=O)[C@]12CCC(C)(C)C[C@H]1[C@H]1C(=O)C=C3[C@@]4(C)CC=C(B5OC(C)(C)C(C)(C)O5)C(C)(C)[C@@H]4CC[C@@]3(C)[C@]1(C)CC2,> 50 µM,> 50 µM,> 50 µM,> 50 µM,> 50 µM,> 50 µM,> 50 µM,–
CC1(C)CC[C@]2(C(=O)NCC(=O)O)CC[C@]3(C)C(=CC[C@@H]4[C@@]5(C)CC=C(B6OC(C)(C)C(C)(C)O6)C(C)(C)[C@@H]5CC[C@]43C)[C@@H]2C1,> 50 µM,17.9 µM,15.4 µM,28 µM,13.4 µM,18.2 µM,15.5 µM,inhibition (Jurkat [13]): Active; inhibition (Jurkat [14]): Active; Activity (Jurkat [15]): 25%; Activity (Jurkat [5]): 51.4%; Activity (Jurkat [6]): 84.1%; Activity (Jurkat [7]): 85.3%; Activity (Jurkat [8]): 59.3%; Activity (Jurkat [9]): 64%; Activity (Jurkat [10]): 83.6%; Activity (Jurkat [16]): 19.81%; Activity (Jurkat [17]): 13.22%; Activity (Jurkat [18]): 3.73%; Activity (Jurkat [19]): 13.79%; Activity (Jurkat [20]): 10.6%; Activity (Jurkat [21]): 13.27%; Activity (Jurkat [22]): 82.2%; Activity (Jurkat [12]): Active
COC(=O)[C@]12CCC(C)(C)C[C@H]1[C@H]1C(=O)C[C@@H]3[C@@]4(C)CC=C(B5OC(C)(C)C(C)(C)O5)C(C)(C)[C@@H]4CC[C@@]3(C)[C@]1(C)CC2,> 50 µM,> 50 µM,> 50 µM,> 50 µM,> 50 µM,> 50 µM,> 50 µM,–
C[C@H](NC(=O)[C@]12CCC(C)(C)C[C@H]1C1=CC[C@@H]3[C@@]4(C)CC=C(B5OC(C)(C)C(C)(C)O5)C(C)(C)[C@@H]4CC[C@@]3(C)[C@]1(C)CC2)C(=O)O,> 50 µM,28.7 µM,31.2 µM,30.5 µM,19.4 µM,20.1 µM,21.4 µM,inhibition (Jurkat [13]): Active; inhibition (Jurkat [14]): Active; Activity (Jurkat [15]): 37%; Activity (Jurkat [5]): 50.8%; Activity (Jurkat [6]): 70.7%; Activity (Jurkat [7]): 85.1%; Activity (Jurkat [8]): 47.2%; Activity (Jurkat [9]): 84.3%; Activity (Jurkat [10]): 91.7%; Activity (Jurkat [16]): 16.33%; Activity (Jurkat [17]): 13.67%; Activity (Jurkat [18]): 5.37%; Activity (Jurkat [19]): 15.82%; Activity (Jurkat [20]): 12.19%; Activity (Jurkat [21]): 14.24%; Activity (Jurkat [22]): 58.78%; Activity (Jurkat [12]): Active

# — ChEMBL document CHEMBL2375265, “Novel oleanolic vinyl boronates: synthesis and antitumor activity” (Eur J Med Chem, 2013)
